Test results taken from patent US12195482B1 (Arcus Biosciences, Inc., priority 2022, dated 2025).

Each compound was assayed against T1, Axl (Homo sapiens, UniProt P30530) (assay: Axl NanoBRET intracellular kinase assay (intracellular binding, K-5 tracer displacement)). Settings: HEK-293 cells transfected with Axl-NanoLuc, 0.35 μM K-5 NanoBRET tracer; read-out: Cell Binding AXL.
T1 sequence (P30530 26-894): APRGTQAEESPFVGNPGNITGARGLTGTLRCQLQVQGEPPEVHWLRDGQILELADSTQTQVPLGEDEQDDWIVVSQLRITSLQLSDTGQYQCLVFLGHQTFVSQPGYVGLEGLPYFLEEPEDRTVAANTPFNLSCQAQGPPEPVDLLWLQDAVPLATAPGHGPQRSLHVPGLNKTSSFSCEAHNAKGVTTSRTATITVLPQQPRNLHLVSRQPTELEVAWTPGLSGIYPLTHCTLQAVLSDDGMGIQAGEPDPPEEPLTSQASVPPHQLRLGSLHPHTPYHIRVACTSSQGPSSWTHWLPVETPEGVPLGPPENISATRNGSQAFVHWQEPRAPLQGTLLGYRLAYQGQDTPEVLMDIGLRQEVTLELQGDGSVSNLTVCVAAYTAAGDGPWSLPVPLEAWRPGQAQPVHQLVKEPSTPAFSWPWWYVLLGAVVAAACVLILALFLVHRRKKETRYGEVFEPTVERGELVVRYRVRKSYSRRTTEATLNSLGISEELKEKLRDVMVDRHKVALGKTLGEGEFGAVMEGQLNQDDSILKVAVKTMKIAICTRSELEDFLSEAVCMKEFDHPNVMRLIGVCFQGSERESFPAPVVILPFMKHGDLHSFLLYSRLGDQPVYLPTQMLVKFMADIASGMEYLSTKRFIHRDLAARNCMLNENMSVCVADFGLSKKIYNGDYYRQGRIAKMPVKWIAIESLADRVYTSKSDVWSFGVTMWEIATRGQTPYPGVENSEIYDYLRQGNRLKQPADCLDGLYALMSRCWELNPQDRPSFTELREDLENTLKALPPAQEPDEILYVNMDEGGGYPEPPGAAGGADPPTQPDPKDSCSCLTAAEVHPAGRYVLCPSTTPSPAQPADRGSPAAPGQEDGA
Set-up: host or cells: HEK-293
Method: Measuring Intracellular Binding of Axl Inhibitors
Axl NanoBRET™ intracellular kinase assay (Promega, N2540) was performed according to manufacturer's recommendation. In brief, HEK-293 cells are transiently transfected with Ax1-NanoLuc fusion vector (Promega, NV1071), utilizing Fugene HD transfection reagent (Promega, E2311) a day before experiment following manufacturer's recommendation.
The day of the assay, the cells were collected and resuspended in Opti-MEM media (ThermoFisher, 31985070) at 2e5 cells/mL concentration. Testing compounds were serial diluted and dispensed into a white 384 well polystyrene plate at 200 nL in 100% DMSO. 40 μL of resuspended cells is then added per well for a final condition of 8K cells/well with 0.5% DMSO. After one-hour compound pre-incubation at 37° C. and 5% CO2, cells were further incubated with 0.35 μM K-5 NanoBRET tracer for two-hours at 37° C. and 5% CO2. […] of 3× substrate plus Inhibitor solution was prepared according to kits manual and added to the cells followed by a 30 second pulse centrifugation spin. The plate was then immediately read utilizing an Envision (Perkin Elmer) plate reader. The BRET signal is measured by taking the ratio of the emissions reading at 610 nm and 450 nm. Compound binding is based on the decrease BRET signal caused by the displacement of the K-5 tracer. […] ICso value of compounds was determined by 4-parameter non-linear regression fitting of percent activity in GraphPad Prism software.

| IC50 [nM] | Compound |
| --- | --- |
| < 100 | Cn1nncc1-c1ccc(-c2n[nH]c3ncc(-c4ccc5c(c4)CC[C@@H](N4C6COCC4C6)CC5)cc23)cc1 [Example 13, 6-[(7S)-2-{3-[4-(1-Methyl-1H-1,2,3-triazol-5-yl)phenyl]-1H-pyrazolo[3,4-b]pyridin-5-yl}-6,7,8,9-tetrahydro-5H-benzo[7]annulen-7-yl]-3-oxa-6-azabicyclo[3.1.1]heptane] |
| < 100 | CC(C)(O)c1cccnc1-c1ccc(-c2n[nH]c3ncc(-c4ccc5c(c4)CC[C@@H](N4C6COCC4C6)CC5)cc23)cc1 [Example 10, 2-[2-(4-{5-[(7S)-7-{3-Oxa-6-azabicyclo[3.1.1]heptan-6-yl}-6,7,8,9-tetrahydro-5H-benzo[7]annulen-2-yl]-1H-pyrazolo[3,4-b]pyridin-3-yl}phenyl)pyridin-3-yl]propan-2-ol] |
| 100 to 1000 | c1cncc(-c2ccc(-c3c[nH]c4ncc(-c5ccc6c(c5)CC[C@@H](N5C7COCC5C7)CC6)cc34)cc2)c1 [Example 158, 6-[(7S)-2-{3-[4-(Pyridin-3-yl)phenyl]-1H-pyrrolo[2,3-b]pyridin-5-yl}-6,7,8,9-tetrahydro-5H-benzo[7]annulen-7-yl]-3-oxa-6-azabicyclo[3.1.1]heptane] |
| < 100 | Cn1ncnc1-c1ccc(-c2n[nH]c3ncc(-c4ccc5c(c4)CC[C@@H](N4C6COCC4C6)CC5)cc23)cc1 [Example 110, 6-[(7S)-2-{3-[4-(1-Methyl-1H-1,2,4-triazol-5-yl)phenyl]-2H-pyrazolo[3,4-b]pyridin-5-yl}-6,7,8,9-tetrahydro-5H-benzo[7]annulen-7-yl]-3-oxa-6-azabicyclo[3.1.1]heptane] |
| < 100 | Cc1nccnc1-c1ccc(-c2n[nH]c3ncc(-c4ccc5c(c4)CC[C@@H](N4C6COCC4C6)CC5)cc23)cc1 [Example 175, 6-[(7S)-2-{3-[4-(3-Methylpyrazin-2-yl)phenyl]-1H-pyrazolo[3,4-b]pyridin-5-yl}-6,7,8,9-tetrahydro-5H-benzo[7]annulen-7-yl]-3-oxa-6-azabicyclo[3.1.1]heptane] |
| < 100 | Cc1ccnnc1-c1ccc(-c2n[nH]c3ncc(-c4ccc5c(c4)CC[C@@H](N4C6COCC4C6)CC5)cc23)cc1 [Example 176, 6-[(7S)-2-{3-[4-(4-Methylpyridazin-3-yl)phenyl]-1H-pyrazolo[3,4-b]pyridin-5-yl}-6,7,8,9-tetrahydro-5H-benzo[7]annulen-7-yl]-3-oxa-6-azabicyclo[3.1.1]heptane] |
| < 100 | Cn1nccc1-c1ccc(-c2n[nH]c3ncc(-c4ccc5c(c4)CC[C@@H](N4C6COCC4C6)CC5)cc23)cc1 [Example 109, 6-[(7S)-2-{3-[4-(1-Methyl-1H-pyrazol-5-yl)phenyl]-1H-pyrazolo[3,4-b]pyridin-5-yl}-6,7,8,9-tetrahydro-5H-benzo[7]annulen-7-yl]-3-oxa-6-azabicyclo[3.1.1]heptane] |
| < 100 | Cn1cnnc1-c1ccc(-c2n[nH]c3ncc(-c4ccc5c(c4)CC[C@@H](N4C6COCC4C6)CC5)cc23)cc1 [Example 169, 6-[(7S)-2-{3-[4-(4-Methyl-4H-1,2,4-triazol-3-yl)phenyl]-1H-pyrazolo[3,4-b]pyridin-5-yl}-6,7,8,9-tetrahydro-5H-benzo[7]annulen-7-yl]-3-oxa-6-azabicyclo[3.1.1]heptane] |
| < 100 | Cc1cccnc1-c1ccc(-c2n[nH]c3ncc(-c4ccc5c(c4)CC[C@@](C)(N4CCC[C@H]4C)CC5)cc23)cc1 [Example 163, 3-Methyl-2-(4-{5-[(7S)-7-methyl-7-[(2R)-2-methylpyrrolidin-1-yl]-6,7,8,9-tetrahydro-5H-benzo[7]annulen-2-yl]-2H-pyrazolo[3,4-b]pyridin-3-yl}phenyl)pyridine] |
| < 100 | CN(C)C(=O)c1cccnc1-c1ccc(-c2c[nH]c3ncc(-c4ccc5c(c4)CC[C@@H](N4C6COCC4C6)CC5)cc23)cc1 [Example 165, N,N-Dimethyl-2-(4-{5-[(7S)-7-{3-oxa-6-azabicyclo[3.1.1]heptan-6-yl}-6,7,8,9-tetrahydro-5H-benzo[7]annulen-2-yl]-1H-pyrrolo[2,3-b]pyridin-3-yl}phenyl)pyridine-3-carboxamide] |
